In patent publication US9271971B2, “Pyrido[3,4-B]indoles and methods of use” (Medivation Technologies, Inc., priority 2009, dated 2016):

Tests used:
[1] = biological target: T1, human recombinant adrenergic α2B receptor (Homo sapiens, UniProt P18089); assay: Adrenergic α2B radioligand binding assay; conditions: [3H]Rauwolscine specific binding; for inhibition at 1 µM: read-out: Percent Inhibition of ligand binding, Adrenergic (1 μM ligand conc.) α2B; for inhibition at 0.1 µM: read-out: Percent Inhibition of ligand binding, Adrenergic (0.1 μM ligand conc.) α2B
T1 construct: expressed in transfected cells; host or cells: Chinese hamster ovary (CHO-K1) cells
T1 sequence (P18089 1-450): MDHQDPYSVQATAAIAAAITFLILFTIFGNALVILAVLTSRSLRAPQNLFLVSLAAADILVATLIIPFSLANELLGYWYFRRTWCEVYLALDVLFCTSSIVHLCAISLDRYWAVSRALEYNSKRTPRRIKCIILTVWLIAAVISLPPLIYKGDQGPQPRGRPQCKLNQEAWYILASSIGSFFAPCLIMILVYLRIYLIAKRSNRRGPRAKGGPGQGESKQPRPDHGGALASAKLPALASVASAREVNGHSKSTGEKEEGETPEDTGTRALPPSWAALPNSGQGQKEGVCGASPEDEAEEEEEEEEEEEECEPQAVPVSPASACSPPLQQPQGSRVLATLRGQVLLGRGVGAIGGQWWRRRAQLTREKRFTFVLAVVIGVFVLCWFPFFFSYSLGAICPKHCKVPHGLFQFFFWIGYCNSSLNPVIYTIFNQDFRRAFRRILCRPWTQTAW
Protocol: To evaluate in radioligand binding assays the activity of compounds of the invention, human recombinant adrenergic α2B receptor expressed in Chinese hamster ovary (CHO-K1) cells [Uhlen, S et al., Eur J Pharmacol. (1998), 343(1):93] in a modified Tris-HCl buffer (50 mM Tris-HCl, pH 7.4, 12.5 mM MgCl2, 1 mM EDTA, 0.2% BSA) was used. Compounds of the invention were incubated with 2.5 nM [^3H]Rauwolscine for 60 min. at 25° C. Non-specific binding was estimated in the presence of 10 μM Prozosin. Receptor proteins were filtered and washed, the filters were then counted to determine [^3H]Rauwolscine specifically bound. Compounds were screened at 1 μM or lower, using 1% DMSO as vehicle. Compounds of the invention were tested in this biochemical assay. Biochemical assay results for representative compounds were presented as the percent inhibition of specific binding in Table 3.

[2] = biological target: human recombinant dopamine D2L receptor (Homo sapiens, UniProt P14416); assay: Dopamine D2L radioligand binding assay; conditions: [3H]Spiperone specific binding; for inhibition at 1 µM: read-out: Percent Inhibition of ligand binding, Dopamine (1 μM ligand conc.) D2L
Protocol: To evaluate in radioligand binding assays the activity of compounds of the invention, human recombinant dopamine D2L receptor expressed in Chinese hamster ovary (CHO) cells [Grandy, D. K. et al. Proc. Natl. Acad. Sci. USA. (1989), 86:9762; Hayes, G. et al., Mol. Endocrinol. (1992), 6:920] in a modified Tris-HCl buffer (50 mM Tris-HCl, pH 7.4, 1.4 mM Ascorbic Acid, 0.001% BSA, 150 mM NaCl) was used. Compounds of the invention were incubated with 0.16 nM [^3H]Spiperone for 120 min. at 25° C. Non-specific binding was estimated in the presence of 10 μM Haloperidol. Receptor proteins were filtered and washed, the filters were then counted to determine [^3H]Spiperone specifically bound. Compounds were screened at 1 μM or lower, using 1% DMSO as vehicle. Biochemical assay results are presented as the percent inhibition of specific binding in Table 3.

[3] = biological target: T2, human recombinant serotonin (5-Hydroxytryptamine) 5-HT2C receptor (Homo sapiens, UniProt P28335); assay: Serotonin 5-HT2C radioligand binding assay; conditions: [3H]Mesulergine specific binding; for inhibition at 1 µM: read-out: Percent Inhibition of ligand binding, Serotonin (1 μM ligand concentration) 5-HT2C
T2 construct: expressed in transfected cells; host or cells: Chinese hamster ovary (CHO-K1) cells
T2 sequence (P28335 33-458): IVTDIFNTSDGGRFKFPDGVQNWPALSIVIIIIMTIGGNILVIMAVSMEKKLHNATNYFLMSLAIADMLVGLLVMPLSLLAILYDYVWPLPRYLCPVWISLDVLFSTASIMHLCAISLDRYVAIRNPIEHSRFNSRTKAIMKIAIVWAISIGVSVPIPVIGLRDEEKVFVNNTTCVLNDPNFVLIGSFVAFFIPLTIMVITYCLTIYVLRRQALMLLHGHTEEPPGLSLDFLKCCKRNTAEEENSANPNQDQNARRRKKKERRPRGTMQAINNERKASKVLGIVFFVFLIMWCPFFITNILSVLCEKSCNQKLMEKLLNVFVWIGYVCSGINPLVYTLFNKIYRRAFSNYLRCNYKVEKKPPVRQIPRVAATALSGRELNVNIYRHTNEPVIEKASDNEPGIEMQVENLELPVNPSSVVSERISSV
Protocol: To evaluate in radioligand binding assays the activity of compounds of the invention, human recombinant serotonin (5-Hydroxytryptamine) 5-HT2C receptor expressed in Chinese hamster ovary (CHO-K1) cells [Wolf, W. A. et al., J. Neurochem. (1997), 69:1449] in a modified Tris-HCl buffer (50 mM Tris-HCl, pH 7.4, 0.1% Ascorbic Acid, 10 μM Pargyline) was used. Compounds of the invention were incubated with 1 nM [^3H]Mesulergine for 60 min. at 25° C. Non-specific binding was estimated in the presence of 1 μM Mianserin. Receptor proteins were filtered and washed, the filters were then counted to determine [^3H]Mesulergine specifically bound. Compounds were screened at 1 μM or lower, using 1% DMSO as vehicle. Biochemical assay results are presented as the percent inhibition of specific binding in Table 4.

[4] = biological target: T3, human recombinant serotonin (5-Hydroxytryptamine) 5-HT6 receptor (Homo sapiens, UniProt P50406); assay: Serotonin 5-HT6 radioligand binding assay; conditions: [3H]LSD specific binding; for inhibition at 1 µM: read-out: Percent Inhibition of ligand binding, Serotonin (1 μM ligand concentration) 5-HT6
T3 construct: expressed in transfected cells; host or cells: human HeLa cells
Protocol: To evaluate in radioligand binding assays the activity of compounds of the invention, human recombinant serotonin (5-Hydroxytryptamine) 5-HT6 receptor expressed in human HeLa cells [Monsma, F. J. Jr et al., Mol. Pharmacol. (1993), 43:320] in a modified Tris-HCl buffer (50 mM Tris-HCl, pH 7.4, 150 mM NaCl, 2 mM Ascorbic Acid, 0.001% BSA) was used. Compounds of the invention were incubated with 1.5 nM [3H]Lysergic acid diethylamide (LSD) for 120 min. at 37° C. Non-specific binding was estimated in the presence of 5 μM Serotonin (5-HT). Receptor proteins were filtered and washed, the filters were then counted to determine[3H]LSD specifically bound. Compounds were screened at 1 μM or lower, using 1% DMSO as vehicle. Biochemical assay results are presented as the percent inhibition of specific binding in Table 4.

Sequence of human recombinant dopamine D2L receptor (P14416 whole entry): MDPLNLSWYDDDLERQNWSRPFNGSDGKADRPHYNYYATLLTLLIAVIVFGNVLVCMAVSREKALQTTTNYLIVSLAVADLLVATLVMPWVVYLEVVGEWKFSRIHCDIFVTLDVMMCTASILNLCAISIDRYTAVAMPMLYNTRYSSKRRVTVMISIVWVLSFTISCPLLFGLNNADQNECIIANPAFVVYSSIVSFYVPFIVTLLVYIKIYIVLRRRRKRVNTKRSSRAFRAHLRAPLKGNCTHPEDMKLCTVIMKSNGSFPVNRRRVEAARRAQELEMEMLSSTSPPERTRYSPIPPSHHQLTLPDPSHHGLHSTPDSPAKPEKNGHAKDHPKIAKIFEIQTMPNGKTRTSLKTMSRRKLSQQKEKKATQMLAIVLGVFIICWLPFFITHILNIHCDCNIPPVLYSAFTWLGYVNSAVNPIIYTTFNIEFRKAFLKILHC
T3 sequence (P50406 whole entry): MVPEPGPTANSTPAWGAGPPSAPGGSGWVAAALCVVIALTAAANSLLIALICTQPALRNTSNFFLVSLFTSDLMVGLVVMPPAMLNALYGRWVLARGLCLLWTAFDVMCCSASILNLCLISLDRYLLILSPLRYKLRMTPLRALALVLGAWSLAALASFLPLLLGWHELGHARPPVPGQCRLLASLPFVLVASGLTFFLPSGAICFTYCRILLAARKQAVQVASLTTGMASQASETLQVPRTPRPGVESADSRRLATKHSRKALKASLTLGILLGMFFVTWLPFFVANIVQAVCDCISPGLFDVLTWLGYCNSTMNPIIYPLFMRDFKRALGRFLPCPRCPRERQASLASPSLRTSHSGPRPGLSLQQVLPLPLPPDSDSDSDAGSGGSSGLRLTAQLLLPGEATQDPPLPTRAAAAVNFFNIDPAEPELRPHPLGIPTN

SMILES	inhibition at 1 µM ([1]; 1 μM) [%]	inhibition at 1 µM [2] [%]	inhibition at 1 µM [3] [%]	inhibition at 1 µM [4] [%]	inhibition at 0.1 µM [1] [%]	Percent Inhibition of ligand binding, Dopamine (1 μM ligand conc.) D2L [2] [%]	Percent Inhibition of ligand binding, Adrenergic (1 μM ligand conc.) α2B ([1]; 1 μM) [%]	Percent Inhibition of ligand binding, Serotonin (1 μM ligand concentration) 5-HT2C [3] [%]	Percent Inhibition of ligand binding, Serotonin (1 μM ligand concentration) 5-HT6 [4] [%]
COc1ccc(C(O)Cn2c3c(c4cc(C)ccc42)C2CCN(C3)C2)cc1F (stereo not drawn) [Compound 6]	73	-1	43	22					
Cc1ccc2c(c1)c1c(n2CC(=O)N2CCCCC2)CN2CCC1C2 (stereo not drawn) [Compound 7]	0	-3	2	0					
C/C(=C\n1c2c(c3cc(C)ccc31)C1CCN(C2)C1)c1ccc(Cl)cc1Cl (stereo not drawn) [Compound 33]	73		95	35	9	−6			
C/C(=C\n1c2c(c3cc(C)ccc31)C1CCN(C2)C1)c1ccncc1 (stereo not drawn) [Compound 44]		9	58	97	9				
Cc1ccc2c(c1)c1c(n2CCc2nc(-c3ccccc3)cs2)CN2CCC1C2 (stereo not drawn) [Compound 19]	61	-2	23	9					
Cc1ccc2c(c1)c1c(n2CCc2ccccn2)CN2CCC1C2 (stereo not drawn) [Compound 11]	48	-6	17	20					
Cc1ccc2c(c1)c1c(n2CC(C)(O)c2ccc(Cl)c(Cl)c2)CN2CCC1C2 (stereo not drawn) [Compound 13]	99	-2	83	17					
C/C(=C\n1c2c(c3cc(C)ccc31)C1CCN(C2)C1)c1ccc(Cl)cc1Cl (stereo not drawn) [Compound 34]						0	55	99	21
Cc1ccc2c(c1)c1c(n2CC(C)(O)c2ccc(Cl)cc2Cl)CN2CCC1C2 (stereo not drawn) [Compound 14]	68	11	87	1					
C/C(=C/n1c2c(c3cc(C)ccc31)C1CCN(C2)C1)c1ccccc1F (stereo not drawn) [Compound 37]		5	94	70					
Cc1ccc2c(c1)c1c(n2CC(C)(O)c2ccc(Cl)cc2)CN2CCC1C2 (stereo not drawn) [Compound 16]	103	5	92	29					
Cc1ccc2c(c1)c1c(n2C#Cc2ccc(Cl)cc2)CN2CCC1C2 (stereo not drawn) [Compound 35]		-6	94	12					
Cc1ccc2c(c1)c1c(n2CCc2cncc(F)c2)CN2CCC1C2 (stereo not drawn) [Compound 9]	45	9	4	40					
Cc1ccc2c(c1)c1c(n2CC(C)(O)c2ccc(F)c(F)c2)CN2CCC1C2 (stereo not drawn) [Compound 15]	106	0	87	59					
C/C(=C\n1c2c(c3cc(C)ccc31)C1CCN(C2)C1)c1ccc(F)cc1 (stereo not drawn) [Compound 22]	95	21	96	102		25			
Cc1ccc2c(c1)c1c(n2CC(O)c2ccccc2)CN2CCC1C2 (stereo not drawn) [Compound 4]	89	3	31	56					
C/C(=C\n1c2c(c3cc(C)ccc31)C1CCN(C2)C1)c1ccccc1F (stereo not drawn) [Compound 38]		1	93	58	25				
Cc1ccc2c(c1)c1c(n2CC(=O)NC2CCCCC2)CN2CCC1C2 (stereo not drawn) [Compound 23]	-6	5	11	4					
Cc1ccc(/C=C/n2c3c(c4cc(C)ccc42)C2CCN(C3)C2)cc1 (stereo not drawn) [Compound 10]	66	18	9	-4					
Cc1ccc2c(c1)c1c(n2C(=O)Cc2ccc(F)cc2)CN2CCC1C2 (stereo not drawn) [Compound 43]		11	66	7					
Cc1ccc2c(c1)c1c(n2CC(=O)c2ccccc2)CN2CCC1C2 (stereo not drawn) [Compound 21]	20	-2	-4	29					
Cc1ccc2c(c1)c1c(n2CC(=O)N2CCOCC2)CN2CCC1C2 (stereo not drawn) [Compound 26]	7	10	20	4					
C/C(=C\n1c2c(c3cc(C)ccc31)C1CCN(C2)C1)c1cccnc1 (stereo not drawn) [Compound 42]		-10	64	26					
C/C(=C\n1c2c(c3cc(C)ccc31)C1CCN(C2)C1)c1ccc(F)c(F)c1 (stereo not drawn) [Compound 39]		0	94	81					
C/C(=C\n1c2c(c3cc(C)ccc31)C1CCN(C2)C1)c1ccc(Cl)c(Cl)c1 (stereo not drawn) [Compound 40]		6	89	12					
COc1ccc(/C(C)=C/n2c3c(c4cc(C)ccc42)C2CCN(C3)C2)cc1F (stereo not drawn) [Compound 41]		17	97	48					
